Values joined by “and” are separate entries in the source; they are usually repeats but may differ in a detail not shown here. Equal values may be shown once. Inconclusive results are not listed.
Tested on: CD8F1 mice, subcutaneous mammary adenocarcinoma, T/C%
Assay: NCI In Vivo Anticancer Drug Screen. Data for tumor model Mammary Adenocarcinoma CD8F1 (subcutaneous) in CD8F1
Details: higher = larger tumour
How it was run: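 Compound-treated versus vehicle-treated mice with transplantable tumors; survival or tumor size compared as T/C.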

[1] = endpoint: median tumor weight (est.), dose: 3.12 mg/kg/injection, schedule: Q07DX005 (ip), vehicle: saline with Tween-80
[2] = endpoint: median tumor weight (est.), dose: 6.25 mg/kg/injection, schedule: Q07DX005 (ip), vehicle: saline with Tween-80

CN(C)c1ccc2c(NCCCCCCNc3ccnc4cc(N(C)C)ccc34)ccnc2c1
T/C (endpoint: median tumor weight change, dose: 15.62 mg/kg/injection, schedule: Q01DX001 (ip), vehicle: distilled water + Tween-80 + alcohol): 66 % of control | T/C (endpoint: median tumor weight change, dose: 31.0 mg/kg/injection, schedule: Q01DX001 (ip), vehicle: distilled water + Tween-80 + alcohol): 94 % of control | T/C (endpoint: median tumor weight change, dose: 31.25 mg/kg/injection, schedule: Q01DX001 (ip), vehicle: distilled water + Tween-80 + alcohol): 96 % of control | T/C (endpoint: median tumor weight change, dose: 62.5 mg/kg/injection, schedule: Q01DX001 (ip), vehicle: distilled water + Tween-80 + alcohol): 3 % of control | T/C (endpoint: median tumor weight change, dose: 62.5 mg/kg/injection, schedule: Q01DX001 (ip), vehicle: distilled water + Tween-80): 48 % of control | T/C (endpoint: median tumor weight change, dose: 125.0 mg/kg/injection, schedule: Q01DX001 (ip), vehicle: distilled water + Tween-80 + alcohol): 51 % of control | T/C (endpoint: median tumor weight change, dose: 250.0 mg/kg/injection, schedule: Q01DX001 (ip), vehicle: distilled water + Tween-80 + alcohol): 8 % of control and 28 % of control

NC(=O)c1ncn(C2OC(CO)C(O)C2O)n1 (configuration not stated)
T/C (endpoint: mean tumor weight, dose: 12.5 mg/kg/injection, schedule: Q07DX006 (ip), vehicle: saline): 120 % of control | T/C (endpoint: mean tumor weight, dose: 25.0 mg/kg/injection, schedule: Q07DX006 (ip), vehicle: saline): 288 % of control | T/C (endpoint: mean tumor weight, dose: 50.0 mg/kg/injection, schedule: Q07DX006 (ip), vehicle: saline): 60 % of control | T/C (endpoint: mean tumor weight, dose: 100.0 mg/kg/injection, schedule: Q07DX006 (ip), vehicle: saline): 35 % of control | T/C (endpoint: mean tumor weight, dose: 200.0 mg/kg/injection, schedule: Q07DX006 (ip), vehicle: saline): 41 % of control | T/C (endpoint: mean tumor weight, dose: 400.0 mg/kg/injection, schedule: Q07DX006 (ip), vehicle: saline): 27 % of control | T/C (endpoint: median tumor weight (est.), dose: 12.5 mg/kg/injection, schedule: Q07DX005 (ip), vehicle: saline): 118 % of control | T/C (endpoint: median tumor weight (est.), dose: 25.0 mg/kg/injection, schedule: Q07DX005 (ip), vehicle: saline): 165 % of control | T/C (endpoint: median tumor weight (est.), dose: 50.0 mg/kg/injection, schedule: Q07DX005 (ip), vehicle: saline): 97 % of control | T/C (endpoint: median tumor weight (est.), dose: 100.0 mg/kg/injection, schedule: Q07DX005 (ip), vehicle: saline): 102 % of control | T/C (endpoint: median tumor weight (est.), dose: 200.0 mg/kg/injection, schedule: Q07DX005 (ip), vehicle: saline): 46 % of control | T/C (endpoint: median tumor weight (est.), dose: 400.0 mg/kg/injection, schedule: Q07DX005 (ip), vehicle: saline): 48 % of control

CS(=O)(=O)CS(=O)(=O)OCCCl
T/C (endpoint: median tumor weight change, dose: 125.0 mg/kg/injection, schedule: Q01DX001 (ip), vehicle: suspension in saline): 56 % of control | T/C (endpoint: median tumor weight change, dose: 250.0 mg/kg/injection, schedule: Q01DX001 (ip), vehicle: suspension in saline): 68 % of control

Cc1ccoc1
T/C (endpoint: median tumor weight change, dose: 20.8 mg/kg/injection, schedule: Q03HX003 (ip), vehicle: saline with Tween-80): 66 % of control | T/C (endpoint: median tumor weight change, dose: 41.6 mg/kg/injection, schedule: Q03HX003 (ip), vehicle: saline with Tween-80): 82 % of control | T/C (endpoint: median tumor weight change, dose: 83.3 mg/kg/injection, schedule: Q03HX003 (ip), vehicle: saline with Tween-80): 62 % of control | T/C (endpoint: median tumor weight change, dose: 166.6 mg/kg/injection, schedule: Q03HX003 (ip), vehicle: saline with Tween-80): 73 % of control

CC(C)[C@](O)(C(=O)OCC1=CC[N+]2([O-])CC[C@@H](O)[C@@H]12)[C@H](C)O (some centres not stated)
T/C (endpoint: median tumor weight (est.), dose: 25.0 mg/kg/injection, schedule: Q07DX005 (ip), vehicle: water): 81 % of control | T/C (endpoint: median tumor weight (est.), dose: 50.0 mg/kg/injection, schedule: Q07DX005 (ip), vehicle: water): 67 % of control | T/C (endpoint: median tumor weight (est.), dose: 100.0 mg/kg/injection, schedule: Q07DX005 (ip), vehicle: water): 42 % of control | T/C (endpoint: median tumor weight (est.), dose: 200.0 mg/kg/injection, schedule: Q07DX005 (ip), vehicle: water): 79 % of control | T/C (endpoint: median tumor weight (est.), dose: 400.0 mg/kg/injection, schedule: Q07DX005 (ip), vehicle: water): 59 % of control

Cc1c(CNc2ccc(C(=O)NC(CC(=O)O)C(=O)O)cc2)ccc2nc(N)nc(N)c12 (configuration not stated)
T/C [1]: 28 % of control | T/C (endpoint: median tumor weight (est.), dose: 3.13 mg/kg/injection, schedule: Q07DX005 (ip), vehicle: saline with Tween-80): 26 % of control | T/C [2]: 29 % of control

Nc1ccc(Cl)cc1N
T/C (endpoint: median tumor weight (est.), dose: 12.5 mg/kg/injection, schedule: Q07DX005 (ip), vehicle: saline + alcohol): 92 % of control | T/C (endpoint: median tumor weight (est.), dose: 25.0 mg/kg/injection, schedule: Q07DX005 (ip), vehicle: saline + alcohol): 100 % of control | T/C (endpoint: median tumor weight (est.), dose: 50.0 mg/kg/injection, schedule: Q07DX005 (ip), vehicle: saline + alcohol): 100 % of control | T/C (endpoint: median tumor weight (est.), dose: 100.0 mg/kg/injection, schedule: Q07DX005 (ip), vehicle: saline + alcohol): 88 % of control | T/C (endpoint: median tumor weight (est.), dose: 200.0 mg/kg/injection, schedule: Q07DX005 (ip), vehicle: saline + alcohol): 123 % of control

O=C1N[C@H]2[C@H](CS[C@H]2CCCCC(=O)N(CCP(c2ccccc2)c2ccccc2)CCP(c2ccccc2)c2ccccc2)N1
T/C (endpoint: median tumor weight change, dose: 125.0 mg/kg/injection, schedule: Q01DX001 (ip), vehicle: Klucel (hydroxypropylcellulose) (HPC)): 97 % of control | T/C (endpoint: median tumor weight change, dose: 250.0 mg/kg/injection, schedule: Q01DX001 (ip), vehicle: Klucel (hydroxypropylcellulose) (HPC)): 70 % of control | T/C (endpoint: median tumor weight change, dose: 500.0 mg/kg/injection, schedule: Q01DX001 (ip), vehicle: Klucel (hydroxypropylcellulose) (HPC)): 85 % of control | T/C (endpoint: median tumor weight change, dose: 1000.0 mg/kg/injection, schedule: Q01DX001 (ip), vehicle: Klucel (hydroxypropylcellulose) (HPC)): 55 % of control | T/C (endpoint: median tumor weight change, dose: 2000.0 mg/kg/injection, schedule: Q01DX001 (ip), vehicle: Klucel (hydroxypropylcellulose) (HPC)): 56 % of control

CCN(CC)Cc1cc2[nH]c3c4ccc(Cl)cc4ncc3c2cc1OC
T/C (endpoint: median tumor weight change, dose: 31.0 mg/kg/injection, schedule: Q01DX001 (ip), vehicle: saline with Tween-80): 47 % of control | T/C (endpoint: median tumor weight change, dose: 62.0 mg/kg/injection, schedule: Q01DX001 (ip), vehicle: saline with Tween-80): 109 % of control | T/C (endpoint: median tumor weight change, dose: 125.0 mg/kg/injection, schedule: Q01DX001 (ip), vehicle: saline with Tween-80): 118 % of control

C[C@@](O)(/C=C/[C@H]1CC=CC(=O)O1)[C@@H](C[C@@H](O)\C=C/C=C\C=C\CO)OP(=O)(O)O
T/C (endpoint: median tumor weight change, dose: 15.62 mg/kg/injection, schedule: Q01DX001 (ip), vehicle: other): 99 % of control | T/C (endpoint: median tumor weight change, dose: 31.25 mg/kg/injection, schedule: Q01DX001 (ip), vehicle: other): 83 % of control | T/C (endpoint: median tumor weight change, dose: 62.5 mg/kg/injection, schedule: Q01DX001 (ip), vehicle: other): 42 % of control

NC(CNC(=O)CBr)C(=O)O (configuration not stated)
T/C (endpoint: median tumor weight change, dose: 62.5 mg/kg/injection, schedule: Q01DX001 (ip), vehicle: water): 95 % of control | T/C (endpoint: median tumor weight change, dose: 125.0 mg/kg/injection, schedule: Q01DX001 (ip), vehicle: water): 77 % of control

c1ccc2c(c1)nnn1c3cnccc3nc21
T/C [1]: 115 % of control | T/C [2]: 85 % of control | T/C (endpoint: median tumor weight (est.), dose: 12.5 mg/kg/injection, schedule: Q07DX005 (ip), vehicle: saline with Tween-80): 105 % of control | T/C (endpoint: median tumor weight (est.), dose: 25.0 mg/kg/injection, schedule: Q07DX005 (ip), vehicle: saline with Tween-80): 124 % of control

CC[C@@]1(O)C(=O)OCc2c1cc1n(c2=O)Cc2cc3cc(O)ccc3nc2-1
T/C (endpoint: median tumor weight change, dose: 1.85 mg/kg/injection, schedule: Q01DX001 (ip), vehicle: saline): 97 % of control | T/C (endpoint: median tumor weight change, dose: 7.5 mg/kg/injection, schedule: Q01DX001 (ip), vehicle: saline): 107 % of control | T/C (endpoint: median tumor weight change, dose: 15.0 mg/kg/injection, schedule: Q01DX001 (ip), vehicle: saline): 80 % of control | T/C (endpoint: median tumor weight change, dose: 30.0 mg/kg/injection, schedule: Q01DX001 (ip), vehicle: saline): 28 % of control

Cn1ccc(=Nc2ccc(NC(=O)c3ccc(N=c4ccn(C)c5ccc([N+](=O)[O-])cc45)cc3[N+](=O)[O-])cc2)cc1
T/C (endpoint: median tumor weight (est.), dose: 100.0 mg/kg/injection, schedule: Q07DX005 (ip), vehicle: saline with Tween-80): 48 % of control | T/C (endpoint: median tumor weight (est.), dose: 200.0 mg/kg/injection, schedule: Q07DX005 (ip), vehicle: saline with Tween-80): 124 % of control

Cc1c[nH]c(=O)[nH]c1=O
T/C (endpoint: median tumor weight (est.), dose: 64.0 mg/kg/injection, schedule: Q07DX005 (ip), vehicle: Klucel (hydroxypropylcellulose) (HPC)): 214 % of control and 74 % of control | T/C (endpoint: median tumor weight (est.), dose: 128.0 mg/kg/injection, schedule: Q07DX005 (ip), vehicle: Klucel (hydroxypropylcellulose) (HPC)): 112 % of control and 118 % of control

CC(=O)OCC1OC(n2ncc(=O)[nH]c2=O)C(OC(C)=O)C1OC(C)=O (configuration not stated)
T/C (endpoint: median tumor weight change, dose: 125.0 mg/kg/injection, schedule: Q01DX001 (ip), vehicle: saline): 165 % of control | T/C (endpoint: median tumor weight change, dose: 250.0 mg/kg/injection, schedule: Q01DX001 (ip), vehicle: saline): 111 % of control | T/C (endpoint: median tumor weight change, dose: 500.0 mg/kg/injection, schedule: Q01DX001 (ip), vehicle: saline): 162 % of control | T/C (endpoint: median tumor weight change, dose: 1000.0 mg/kg/injection, schedule: Q01DX001 (ip), vehicle: saline): 117 % of control

Reference: PubChem BioAssay AID220 (DTP/NCI, 2004)
